Data taken from patent US20030211942A1, “Aryl sulfonyl amino carbonyl triazole based selective herbicides” (priority 2000, published 2003).
“And” between values parts separate entries of the source, which are not always exact repeats. Equal entries are not always repeated.

How the values were obtained:
Assay in all cases: Post-emergence/greenhouse herbicidal test
Format in all cases: in vivo
Abutilon theophrasti = settings: post-emergence, about 3 weeks
Description: (§1) Procarbazone- and flucarbazone-sodium were used as 70 WG formulation. Fenoxaprop-P-ethyl was used in a mixture with mefenpyr-diethyl (75 g of mefenpyr-diethyl/l) as Ralon® Super 69 EW. Cinidon-ethyl and florasulam and iodosufuron in a mixture with mefenpyr-diethyl were used in the form of the finished formulations Lotus® 200 EC, Primus® 50 SC and Hussar® 5 WG (15% mefenpyr-diethyl), respectively. Amicarbazone was used as 70 WG formulation.
(§2) In pre- and post-emergence experiments, the spray liquor is usually admixed with a surfactant (Renex 36), at a concentration of 0.1%.
(§3) Test plants are grown under controlled conditions (temperature and light).
(§4) Following the spray application, the plant containers are kept in a greenhouse under constant light and temperature conditions.
(§5) After about 3 weeks, the degree of damage to the plants is rated in % damage in comparison to the development of the untreated control.
(§6) 0% =no damage (like untreated control)
(§7) 100% =total destruction/damage

Galium aparine = settings: post-emergence, about 3 weeks
Description: as §1, §2, §3, §4, §5, §6, §7

Digitaria sanguinalis = settings: post-emergence, about 3 weeks
Description: as §1, §2, §3, §4, §5, §6, §7

Xanthium strumarium = settings: post-emergence, about 3 weeks
Description: as §1, §2, §3, §4, §5, §6, §7

Veronica persicaria = settings: post-emergence, about 3 weeks
Description: as §1, §2, §3, §4, §5, §6, §7

Cassia tora = tested on: Cassia tora
Description: as §1, §2, §3, §4, §5, §6, §7

Viola arvensis = settings: post-emergence, about 3 weeks
Description: as §1, §2, §3, §4, §5, §6, §7

Alopecurus myosuroides = settings: post-emergence, about 3 weeks
Description: as §1, §2, §3, §4, §5, §6, §7

Bromus secalinus = tested on: Bromus secalinus
Description: as §1, §2, §3, §4, §5, §6, §7

Amaranthus retroflexus = settings: post-emergence, about 3 weeks
Description: as §1, §2, §3, §4, §5, §6, §7

Lolium perenne = settings: post-emergence, about 3 weeks
Description: as §1, §2, §3, §4, §5, §6, §7

Matricaria inodora = settings: 2 g of ai/ha, post-emergence, about 3 weeks
Description: as §1, §2, §3, §4, §5, §6, §7

Polygonum convolvolus = tested on: Polygonum convolvolus
Description: as §1, §2, §3, §4, §5, §6, §7

Avena fatua = tested on: Avena fatua
Description: as §1, §2, §3, §4, §5, §6, §7

Echinochloa crus-galli = tested on: Echinochloa crus-galli
Description: as §1, §2, §3, §4, §5, §6, §7

Setaria viridis = tested on: Setaria viridis
Solanum nigrum = settings: 30 g of ai/ha, post-emergence, about 3 weeks
Description: as §1, §2, §3, §4, §5, §6, §7

Stellaria media = settings: post-emergence, about 3 weeks
Description: as §1, §2, §3, §4, §5, §6, §7

Cyperus esculentus = settings: post-emergence, about 3 weeks
Description: as §1, §2, §3, §4, §5, §6, §7

Eriochloa villosa = settings: 15 g of ai/ha, post-emergence, about 3 weeks
Description: as §1, §2, §3, §4, §5, §6, §7

Ipomoea hederacea = settings: post-emergence, about 3 weeks
Description: as §1, §2, §3, §4, §5, §6, §7

[1] = 8 g of ai/ha, post-emergence, about 3 weeks
[2] = 15 g of ai/ha, post-emergence, about 3 weeks
[3] = 2 g of ai/ha, post-emergence, about 3 weeks
[4] = 4 g of ai/ha, post-emergence, about 3 weeks
[5] = 125 g of ai/ha, post-emergence, about 3 weeks
[6] = application rate 8 g ai/ha, iodosulfuron tested as Hussar (iodosulfuron 5% & mefenpyr 15%)
[7] = application rate 2 g ai/ha, iodosulfuron tested as Hussar (iodosulfuron 5% & mefenpyr 15%)
[8] = application rate 4 g ai/ha, iodosulfuron tested as Hussar (iodosulfuron 5% & mefenpyr 15%)
[9] = 60 g of ai/ha, post-emergence, about 3 weeks
[10] = 30 g of ai/ha, post-emergence, about 3 weeks

For `COc1ncc(F)c2nc(S(=O)(=O)Nc3c(F)cccc3F)nn12` [Florasulam, N-(2,6-difluoro-phenyl)-8-fluoro-5-methoxy-[1,2,4]-triazolo-[1,5-c]-pyrimidine-2-sulphonamide], the Abutilon theophrasti observed (Abutilon theophrasti; 2 g of ai/ha) was 20%, the Abutilon theophrasti observed (Abutilon theophrasti; 4 g of ai/ha) was 30% and the Galium aparine observed (Galium aparine; 2 g of ai/ha) was 50%. It also gave a Galium aparine observed (Galium aparine; 4 g of ai/ha) of 50%, a Digitaria sanguinalis observed (Digitaria sanguinalis; 2 g of ai/ha) of 0% and a Digitaria sanguinalis observed (Digitaria sanguinalis; 4 g of ai/ha) of 0%. For the same compound, the Xanthium strumarium observed (Xanthium strumarium; 2 g of ai/ha) was 40%, the Xanthium strumarium observed (Xanthium strumarium; 4 g of ai/ha) was 50% and the Veronica persicaria observed (Veronica persicaria; 2 g of ai/ha) was 0%. It also gave a Veronica persicaria observed (Veronica persicaria; 4 g of ai/ha) of 0%, a Cassia tora observed (Cassia tora; [1]) of 90% and a Cassia tora observed (Cassia tora; [2]) of 95%. It also gave a Viola arvensis observed (Viola arvensis; 2 g of ai/ha) of 0%, a Viola arvensis observed (Viola arvensis; 4 g of ai/ha) of 0% and a Viola arvensis observed (Viola arvensis; 8 g of ai/ha) of 70%. It also gave an Alopecurus myosuroides observed (Alopecurus myosuroides; 2 g of ai/ha) of 0%, an Alopecurus myosuroides observed (Alopecurus myosuroides; 4 g of ai/ha) of 0% and a Bromus secalinus observed (Bromus secalinus; [3]) of 0%. For the same compound, the Bromus secalinus observed (Bromus secalinus; [4]) was 0%, the Amaranthus retroflexus observed (Amaranthus retroflexus; 2 g of ai/ha) was 70% and the Amaranthus retroflexus observed (Amaranthus retroflexus; 4 g of ai/ha) was 70%. The Lolium perenne observed (Lolium perenne; 2 g of ai/ha) was 0%, the Lolium perenne observed (Lolium perenne; 4 g of ai/ha) was 0% and the Lolium perenne observed (Lolium perenne; 8 g of ai/ha) was 20%. The Lolium perenne observed (Lolium perenne; 15 g of ai/ha) was 30%, the Matricaria inodora observed (Matricaria inodora) was 70% and the Polygonum convolvolus observed (Polygonum convolvolus; [1]) was 95%. It also gave a Polygonum convolvolus observed (Polygonum convolvolus; [2]) of 95%, an Avena fatua observed (Avena fatua; [3]) of 0% and an Avena fatua observed (Avena fatua; [4]) of 10%. The Avena fatua observed (Avena fatua; [1]) was 30%, the Avena fatua observed (Avena fatua; [2]) was 50% and the Echinochloa crus-galli observed (Echinochloa crus-galli; [3]) was 10%. The Echinochloa crus-galli observed (Echinochloa crus-galli; [4]) was 40%.
Work on `CC(C)N(C(=O)COc1nnc(C(F)(F)F)s1)c1ccc(F)cc1` [Flufenacet, N-(4-fluorophenyl)-N-isopropyl-2-(5-trifluoromethyl-1,3,4-thiadiazol-2-yl-oxy)-acetamide] yielded an Amaranthus retroflexus observed (Amaranthus retroflexus; 60 g of ai/ha) of 0%, an Amaranthus retroflexus observed (Amaranthus retroflexus; 125 g of ai/ha) of 0% and a Polygonum convolvolus observed (Polygonum convolvolus; [5]) of 0%. The Avena fatua observed (Avena fatua; [5]) was 70%.
For `COC(=O)c1ccc(I)cc1S(=O)(=O)NC(=O)Nc1nc(C)nc(OC)n1.[Na]` [Iodosufuron, N-(4-methoxy-6-methyl-1,3,5-triazin-2-yl)-N′-(5-iodo-2-methoxycarbonyl-phenylsulphonyl)-urea sodium salt], the Cassia tora observed (Cassia tora; [6]) was 80, the Bromus secalinus observed (Bromus secalinus; [7]) was 0 and the Bromus secalinus observed (Bromus secalinus; [8]) was 0. For the same compound, the Bromus secalinus observed (Bromus secalinus; [6]) was 0, the Polygonum convolvolus observed (Polygonum convolvolus; [7]) was 80 and the Avena fatua observed (Avena fatua; [1]) was 70%. For the same compound, the Avena fatua observed (Avena fatua; Table B-62, application rate 2 g ai/ha, iodosulfuron tested as Hussar (iodosulfuron 5% & mefenpyr 15%)) was 10, the Echinochloa crus-galli observed (Echinochloa crus-galli; [7]) was 20 and the Setaria viridis observed (Setaria viridis; [8]) was 0.
For `CCCOc1nn(C(=O)NS(=O)(=O)c2ccccc2C(=O)OC)c(=O)n1C` [Procarbazone-sodium, 2-(2-methoxycarbonyl-phenylsulphonylaminocarbonyl)-4-methyl-5-n-propoxy-2,4-dihydro-3H-1,2,4-triazol-3-one], the Solanum nigrum observed (Solanum nigrum) was 70%, the Abutilon theophrasti observed (Abutilon theophrasti; 60 g of ai/ha) was 60% and the Galium aparine observed (Galium aparine; 15 g of ai/ha) was 20%. It also gave a Galium aparine observed (Galium aparine; 30 g of ai/ha) of 30%, a Galium aparine observed (Galium aparine; 60 g of ai/ha) of 40% and a Xanthium strumarium observed (Xanthium strumarium; 15 g of ai/ha) of 60%. For the same compound, the Xanthium strumarium observed (Xanthium strumarium; 30 g of ai/ha) was 70% and 60%, the Xanthium strumarium observed (Xanthium strumarium; 60 g of ai/ha) was 60% and the Cassia tora observed (Cassia tora; [2]) was 50%. The Cassia tora observed (Cassia tora; [9]) was 30% and 50%, the Stellaria media observed (Stellaria media; 15 g of ai/ha) was 50% and the Stellaria media observed (Stellaria media; 30 g of ai/ha) was 60%. The Stellaria media observed (Stellaria media; 60 g of ai/ha) was 70%, the Cyperus esculentus observed (Cyperus esculentus; 15 g of ai/ha) was 70% and the Cyperus esculentus observed (Cyperus esculentus; 30 g of ai/ha) was 80%. For the same compound, the Viola arvensis observed (Viola arvensis; 30 g of ai/ha) was 50% and 70%, the Viola arvensis observed (Viola arvensis; 60 g of ai/ha) was 80% and the Alopecurus myosuroides observed (Alopecurus myosuroides; 15 g of ai/ha) was 60% and 80%. For the same compound, the Alopecurus myosuroides observed (Alopecurus myosuroides; 30 g of ai/ha) was 70% and 80%, the Alopecurus myosuroides observed (Alopecurus myosuroides; 60 g of ai/ha) was 70% and 90% and the Eriochloa villosa observed (Eriochloa villosa) was 0%. The Bromus secalinus observed (Bromus secalinus; [2]) was 80% and 70%, the Bromus secalinus observed (Bromus secalinus; [10]) was 80% and the Bromus secalinus observed (Bromus secalinus; [9]) was 90%. For the same compound, the Bromus secalinus observed (Bromus secalinus; application rate 15 g ai/ha) was 90, the Bromus secalinus observed (Bromus secalinus; application rate 30 g ai/ha) was 90 and the Amaranthus retroflexus observed (Amaranthus retroflexus; 15 g of ai/ha) was 80% and 98%. The Amaranthus retroflexus observed (Amaranthus retroflexus; 30 g of ai/ha) was 90% and 98%, the Amaranthus retroflexus observed (Amaranthus retroflexus; 60 g of ai/ha) was 98% and the Lolium perenne observed (Lolium perenne; 15 g of ai/ha) was 0%. The Lolium perenne observed (Lolium perenne; 30 g of ai/ha) was 30% and 20%, the Lolium perenne observed (Lolium perenne; 60 g of ai/ha) was 50% and the Polygonum convolvolus observed (Polygonum convolvolus; [10]) was 0%. For the same compound, the Polygonum convolvolus observed (Polygonum convolvolus; [9]) was 0%, the Polygonum convolvolus observed (Polygonum convolvolus; application rate 15 g ai/ha) was 0 and the Polygonum convolvolus observed (Polygonum convolvolus; application rate 30 g ai/ha) was 0. For the same compound, the Polygonum convolvolus observed (Polygonum convolvolus; application rate 60 g ai/ha) was 0, the Ipomoea hederacea observed (Ipomoea hederacea; 15 g of ai/ha) was 60% and the Ipomoea hederacea observed (Ipomoea hederacea; 30 g of ai/ha) was 70%. For the same compound, the Ipomoea hederacea observed (Ipomoea hederacea; 60 g of ai/ha) was 70%, the Avena fatua observed (Avena fatua; [2]) was 70% and 50% and 80% and the Avena fatua observed (Avena fatua; [10]) was 90% and 50%. For the same compound, the Avena fatua observed (Avena fatua; [9]) was 60%, the Echinochloa crus-galli observed (Echinochloa crus-galli; [10]) was 90% and the Echinochloa crus-galli observed (Echinochloa crus-galli; [9]) was 90%. For the same compound, the Setaria viridis observed (Setaria viridis; application rate 15 g ai/ha) was 0, the Setaria viridis observed (Setaria viridis; application rate 30 g ai/ha) was 0 and the Setaria viridis observed (Setaria viridis; application rate 60 g ai/ha) was 20.
